Measured values published in US20070010488A1, “Compounds for modulating cell proliferation” (priority 2005, published 2007).
“And” between values parts separate entries of the source, which are not always exact repeats. Equal values may be shown once. Read-outs that look alike come from different tables or passages of the source.

Columns and labels:
[1] = test system: OCI-AML2 (AML); assay: Alamar Blue cell viability assay, OCI-AML2; format: cell-based; conditions: Homo sapiens, 72 hours
Experimental: (§1) Each test compound was weighed between the ranges of 0.5-2.0 mg, and then dissolved in a specified volume of DMSO to produce a solution of 10 mM. Appropriate dilutions in cell culture medium were made to produce a stock solution of 400 μM. All subsequent dilutions were also done in cell culture medium. This stock solution was then used for further dilutions to produce the initial concentration to be added to the 50 μL and 450 μL of cells in the 96-well and the 48-well microtiter plates, respectively:
(§2) The initial concentration for cells that were cultured in 50 μL 96-well plates was 40 μM. Once 50 μL of this test solution was added to the cells, this then produced a final dilution of 1:2, giving the desired concentration of 20 μM. Further 1:2 dilutions were made until the desired concentration of […] was reached.
(§3) Compound 1 was used as positive control at concentrations of 1 μM and 3 μM. […] C1 and OCI-AML2 and RPMI8226 cell culture media were assayed by addition of 20 μL of Alamar Blue reagent and incubated for 4 hours before reading. […]
(§4) 50 μL of cell culture medium containing the test compound was added to each well twenty four hours after seeding. […] Proliferation of cells was assessed using the fluorimetric Alamar Blue (CellTiter Blue) test and cell counting.
(§5) For the Alamar Blue assay, untreated cells were used as growth controls. Data were assessed in duplicates. […]

[2] = test system: MOLM-13 (AML); assay: Alamar Blue cell viability assay, MOLM-13; format: cell-based; conditions: Homo sapiens, 72 hours
Experimental: as §1
(§6) The initial concentration for cells that were cultured in 50 μL 96-well plates was 40 μM. […]
as §4
(§7) For the Alamar Blue assay, untreated cells were used as growth controls. Data were assessed in duplicates. […] The Alamar Blue cell viability assay was used to determine the IC50 concentrations for the inhibition of cell proliferation or induction of cell death by the ets articles as well as the reference Compound A. Primary data from all assays were plotted for each test compound, cell system and test concentration, with the y-axis representing the readout for cell proliferation/viability and the x-axis representing the compound concentration (μM). […]

[3] = test system: KASUMI-1 (AML); assay: Alamar Blue cell viability assay, KASUMI-1; format: cell-based; conditions: Homo sapiens, 72 hours
Experimental: as §1, §6, §4, §7

[4] = test system: SKM-1 (AML); assay: Alamar Blue cell viability assay, SKM-1; format: cell-based; conditions: Homo sapiens, 72 hours
Experimental: as §1, §6, §4, §7

[5] = test system: MV4-11 (AML); assay: Alamar Blue cell viability assay, MV4-11; format: cell-based; conditions: Homo sapiens, 72 hours
Experimental: as §1, §6, §4, §7

[6] = test system: C1 (T-ALL); assay: Alamar Blue cell viability assay, C1; format: cell-based; conditions: Homo sapiens, 72 hours
Experimental: as §1, §2, §3, §4, §5

[7] = test system: CCRF-CEM (T-ALL); assay: Alamar Blue cell viability assay, CCRF-CEM; format: cell-based; conditions: Homo sapiens, 72 hours
Experimental: as §1, §6, §4, §7

[8] = test system: MOLT-4 (T-ALL); assay: Alamar Blue cell viability assay, MOLT-4; format: cell-based; conditions: Homo sapiens, 72 hours
Experimental: as §1, §6, §4, §7

[9] = test system: PEER (B-ALL); assay: Alamar Blue cell viability assay, PEER; format: cell-based; conditions: Homo sapiens, 72 hours
Experimental: as §1, §6, §4, §7

[10] = test system: SUP-B15 (B-ALL); assay: Alamar Blue cell viability assay, SUP-B15; format: cell-based; conditions: Homo sapiens, 72 hours
Experimental: as §1, §6, §4, §7

[11] = test system: RS4-11 (B-ALL); assay: Alamar Blue cell viability assay, RS4-11; format: cell-based; conditions: Homo sapiens, 72 hours
Experimental: as §1, §6, §4, §7

[12] = test system: K562 (CML); assay: Trypan Blue Dye Exclusion and Cell Counting Assay, K562; format: cell-based; conditions: Homo sapiens, 72 hours
Experimental: as §1, §2
(§8) Compound 1 was used as positive control at concentrations of 1 μM and 3 μM. Cells were incubated with the test compounds for 72 hours. C1 and OCI-AML2 and RPMI8226 cell culture media were assayed by addition of 20 μL of Alamar Blue reagent and incubated for 4 hours before reading. Cell counting was utilised for K562 and DAUDI. [drawing 13] […]
as §4

[13] = test system: RPMI8226 (myeloma); assay: Alamar Blue cell viability assay, RPMI8226; format: cell-based; conditions: Homo sapiens, RPMI-8226, 72 hours
Experimental: as §1, §2, §3, §4, §5

[14] = test system: DAUDI (non-Hodgkin lymphoma); assay: Trypan Blue Dye Exclusion and Cell Counting Assay, DAUDI; format: cell-based; conditions: Homo sapiens, 72 hours
Experimental: as §1, §2, §8, §4

[15] = Mouse pharmacokinetics, intravenous and oral, plasma LC/MSMS; format: in vivo; conditions: Mice CD1; for bioavailability: read-out: Bioavailability factor
Experimental: Compound A (Stored at ca. +5° C.)
Formulation preparation for oral routes: […]
Animal Phase: • Species: Mice CD1 (supplied from Harlan, France) • Routes tested: Intravenous (Mice Nos.39 to 52 incl.), oral low dose (Mice Nos.53 to 63 incl.) and oral high dose (Mice Nos.65 to 76 incl.) • Animals were not fasted.
Times of blood sampling performed from the abdominal aorta (2 animals per time point): • Intravenous route (IV): 5 min, 15 min, 30 min, 1 h, 2 h, 6 h and 24 h • Oral routes (PO): 15 min, 30 min, 1 h, 3 h, 6 h and 24 h
Plasma was harvested by centrifugation of blood at 3500 g for 10 minutes at ca. +5° C.
Plasma was stored at ca. −20° C. until analysis.
Analytical method: LC/MSMS after extraction
Calibration undertaken in plasma (5 levels in mice, twice injected, ranging from 10 to 1000 ng.mL^−1)
HPLC Conditions: • Colonne: Zorbax C18 50×2.1 mm, 3.5 μm • Filter: A102X 5 μm • Injected volume: 20 μL • Mobile phase flow: 0.1 mL.min^−1 • Autosampler temperature: ca. +5° C. • Oven temperature: ca. +30° C. • Run time: 10 min • Mobile phase: deionized water with 0.1% formic acid/methanol with 0.1% formic acid; 30:70 v/v (isocratic) • Retention time: ca. 2.1 min
Extraction Method for Plasma Sample: • 50 μL of plasma combined with 100 μL of methanol • Vortexed a few seconds • Centrifuged 3 min at 13 000 rpm at ca. +5° C. • Diluted 50 μL of the supernatant with 50 μL of deionized water in a HPLC vial for injection • Vortexed a few seconds • Injected into the HPLC/MSMS system Extraction Method for Plasma Calibration Sample: • 50 μL of plasma sample combined with 100 μL of spiking solution • Vortexed a few seconds • Centrifuged 3 min at 13 000 rpm at ca. +5° C. • Diluted 50 μL of the supernatant with 50μL of deionized water in a HPLC vial for injection • Vortexed a few seconds • Injected into the HPLC/MSMS system Results: Animal and Analytical Phase Results: […]

[16] = mouse, plasma, intravenous 3.83 mg/kg
[17] = mouse, plasma, oral high dose 50.2 mg/kg
[18] = mouse, plasma, oral low dose 10.0 mg/kg

SMILES: CCN1C/C(=C\c2cc(OC)c(OC)c(OC)c2)C(=O)/C(=C/c2cc(OC)c(OC)c(OC)c2)C1 [Compound A]
- IC50 [1]: 1030 nM
- IC50 [2]: 1900 nM
- IC50 [3]: 560 nM
- IC50 [4]: 560 nM
- IC50 [5]: 220 nM
- IC50 [6]: 180 nM
- IC50 [7]: 1180 nM
- IC50 [8]: 970 nM
- IC50 [9]: 720 nM
- IC50 [10]: 1030 nM
- IC50 [11]: 450 nM
- IC50 [12]: 2500 nM
- IC50 [13]: 1500 nM
- IC50 [14]: 550 nM
- concentration at 0.083 h ([15]; CD1, mouse, plasma, iv, 3.83 mg/kg, intravenous 3.83 mg/kg, 0.083 h, individual mice, read-out: Plasma levels): 200 ng/mL
- concentration at 0.25 h ([15]; CD1, mouse, plasma, iv, 3.83 mg/kg, intravenous 3.83 mg/kg, 0.25 h, individual mice, read-out: Plasma levels): 64.4 ng/mL
- concentration at 0.5 h ([15]; CD1, mouse, plasma, iv, 3.83 mg/kg, intravenous 3.83 mg/kg, 0.5 h, individual mice, read-out: Plasma levels): 57.5 ng/mL
- concentration at 2 h ([15]; CD1, mouse, plasma, iv, 3.83 mg/kg, intravenous 3.83 mg/kg, 2 h, individual mice, read-out: Plasma levels): 17.9 ng/mL
- concentration at 0.5 h ([15]; CD1, mouse, plasma, po, 10 mg/kg, oral low dose 10.0 mg/kg, 0.5 h, individual mice, read-out: Plasma levels): 71.7 ng/mL
- concentration at 1 h ([15]; CD1, mouse, plasma, po, 10 mg/kg, oral low dose 10.0 mg/kg, 1 h, individual mice, read-out: Plasma levels): 83.5 ng/mL
- concentration at 3 h ([15]; CD1, mouse, plasma, po, 10 mg/kg, oral low dose 10.0 mg/kg, 3 h, individual mice, read-out: Plasma levels): 41.7 ng/mL
- concentration at 24 h ([15]; CD1, mouse, plasma, po, 10 mg/kg, oral low dose 10.0 mg/kg, 24 h, individual mice, LOQ 10 ng · mL^−1, ND: Not Detectable, read-out: Plasma levels): 5.8 ng/mL
- concentration at 0.25 h ([15]; CD1, mouse, plasma, po, 50.2 mg/kg, oral high dose 50.2 mg/kg, 0.25 h, individual mice, read-out: Plasma levels): 819 ng/mL
- concentration at 0.5 h ([15]; CD1, mouse, plasma, po, 50.2 mg/kg, oral high dose 50.2 mg/kg, 0.5 h, individual mice, read-out: Plasma levels): 434 ng/mL
- concentration at 1 h ([15]; CD1, mouse, plasma, po, 50.2 mg/kg, oral high dose 50.2 mg/kg, 1 h, individual mice, read-out: Plasma levels): 175 ng/mL
- concentration at 3 h ([15]; CD1, mouse, plasma, po, 50.2 mg/kg, oral high dose 50.2 mg/kg, 3 h, individual mice, read-out: Plasma levels): 137 ng/mL
- % AUCextra ([15]; intravenous 3.83 mg/kg): 3.2%
- Plasma levels ([15]; intravenous 3.83 mg/kg, 0.083 h, individual mice, 3.83 mg/kg): 333.91 ng/mL
- Plasma levels ([15]; intravenous 3.83 mg/kg, 0.25 h, individual mice, 3.83 mg/kg): 85.28 ng/mL
- Plasma levels ([15]; intravenous 3.83 mg/kg, 0.5 h, individual mice, 3.83 mg/kg): 69.56 ng/mL
- Plasma levels ([15]; intravenous 3.83 mg/kg, 1 h, individual mice, 3.83 mg/kg): 80.73 ng/mL and 39.25 ng/mL
- Plasma levels ([15]; intravenous 3.83 mg/kg, 2 h, individual mice, 3.83 mg/kg): 12.9 ng/mL
- Plasma levels ([15]; intravenous 3.83 mg/kg, 6 h, individual mice, LOQ 10 ng · mL^−1, 3.83 mg/kg): 14.94 ng/mL and 7.29 ng/mL
- Plasma levels ([15]; intravenous 3.83 mg/kg, 24 h, individual mice, LOQ 10 ng · mL^−1, 3.83 mg/kg): 1.68 ng/mL and 0.36 ng/mL
- % AUCextra ([15]; oral high dose 50.2 mg/kg): 0.57%
- Plasma levels ([15]; oral high dose 50.2 mg/kg, 0.25 h, individual mice, 50.2 mg/kg): 444.58 ng/mL
- Plasma levels ([15]; oral high dose 50.2 mg/kg, 0.5 h, individual mice, 50.2 mg/kg): 393.99 ng/mL
- Plasma levels ([15]; oral high dose 50.2 mg/kg, 1 h, individual mice, 50.2 mg/kg): 213.68 ng/mL
- Plasma levels ([15]; oral high dose 50.2 mg/kg, 3 h, individual mice, 50.2 mg/kg): 160.65 ng/mL
- Plasma levels ([15]; oral high dose 50.2 mg/kg, 6 h, individual mice, 50.2 mg/kg): 23.07 ng/mL and 137.34 ng/mL
- Plasma levels ([15]; oral high dose 50.2 mg/kg, 24 h, individual mice, LOQ 10 ng · mL^−1, 50.2 mg/kg): 2.36 ng/mL and 1.04 ng/mL
- % AUCextra ([15]; oral low dose 10.0 mg/kg): 4.1%
- Plasma levels ([15]; oral low dose 10.0 mg/kg, 0.25 h, individual mice, 10 mg/kg): 67.54 ng/mL and 178.37 ng/mL
- Plasma levels ([15]; oral low dose 10.0 mg/kg, 0.5 h, individual mice, 10 mg/kg): 83.39 ng/mL
- Plasma levels ([15]; oral low dose 10.0 mg/kg, 1 h, individual mice, 10 mg/kg): 70.35 ng/mL
- Plasma levels ([15]; oral low dose 10.0 mg/kg, 3 h, individual mice, 10 mg/kg): 40.47 ng/mL
- Plasma levels ([15]; oral low dose 10.0 mg/kg, 6 h, individual mice, LOQ 10 ng · mL^−1, 10 mg/kg): 2.67 ng/mL and 6.30 ng/mL
- AUC [15, 16]: 254 ng·h/mL
- AUC(0-t) [15, 16]: 246 ng·h/mL
- Vd [15, 16]: 119 L/kg
- clearance ([15]; mouse, plasma, intravenous 3.83 mg/kg, read-out: Total Clearance (converted)): 251 mL/min/kg
- half-life ([15]; mouse, plasma, intravenous 3.83 mg/kg, read-out: T½ (converted)): 330 min
- AUC [15, 17]: 1400 ng·h/mL
- AUC(0-t) [15, 17]: 1390 ng·h/mL
- Cmax [15, 17]: 632 ng/mL
- Tmax [15, 17]: 15 min
- bioavailability ([15]; mouse, plasma, oral high dose 50.2 mg/kg vs intravenous): 43.4%
- AUC [15, 18]: 321 ng·h/mL
- AUC(0-t) [15, 18]: 308 ng·h/mL
- Cmax [15, 18]: 123 ng/mL
- Tmax [15, 18]: 15 min
- bioavailability ([15]; mouse, plasma, oral low dose 10.0 mg/kg vs intravenous): 48%
